In article PMC1636466 (Nucleic Acids Research, 2006) one finds Km data, which are given here for 1 molecule.

This test concerns the target Vent(exo-) DNA polymerase (Thermococcus litoralis, UniProt P30317, D141A/E143A). The settings on record: natural primer/template PA/T0, 40 °C, supplied reaction buffer, dATP 10–800 μM.

`Nc1ncnc2c1ncn2[C@H]1C[C@H](O)[C@@H](COP(=O)(O)OP(=O)(O)OP(=O)(O)O)O1` [dATP]: the Michaelis-Menten constant (Km) (commonly the concentration of substrate that gives half-maximal velocity) was determined as 5.52 µM.
